Results reported in US6127136A, “Detection of dioxin-like compounds by detection of transformed Ah receptor/ARNT complex” (Paracelsian, Inc., priority 1996, dated 2000).

Assays:
Assay type in all cases: biochemical, guinea pig (hepatic cytosol)
[1] = system: transformed DRE/AhR/ARNT complex; assay: size exclusion column of DRE/AhR/ARNT complex followed by SDS-PAGE western blot
Method: Size-exclusion column: 10 mL bed volume sephacryl S-100-HR (Sigma, St. Louis, Mo.) packed in Econopac column (Biorad cat. no. 732-1010), equilibrated in HEDG plus 200 mM NaCl. Column was hooked up to a peristaltic pump. Flow rate was 0.5 mL/min. The size exclusion column outlet was attached to a HPLC fluorimeter set at excitation 494 nm and emmission 520 nm to detect fluorescein. DRE used was F-ERD oligo (SEQ. ID. #4) and DRE-D oligo (SEQ. ID. #1) hybridized as described above. Cytosol was prepared as described above. Cytosol was dosed with 1:1000 v/v DMSO (-) or 1:1000 v/v 10 uM 2,3,7,8-tetrachlorodibenzo-p-dioxin in DMSO (+).
Samples were incubated for 2 hours at room temperature as described above to achieve transformation/binding events then put on ice. The entire A sample was loaded onto the Size Exclusion Column and chromatography developed at a flow rate of 0.5 ml/min. Eluant fractions were collected at 2 min intervals (1 mL/fraction). The protocol was repeated for samples B,C,D.
The fluorimeter readings went offscale and usable readings for the fluorescent DRE were not possible. 200 uL subaliquots of fractions 3-10 were submitted to Sodium Dodecyl Sulfate--PolyAcrylamide Gel Electrophoresis (SDS-PAGE) followed by western blotting. Blots of fractions from samples A and B were probed with anti-ARNT (1:200) and anti-rabbit/alkaline phosphatase (1: 1000) and developed with BCIP/NBT. […]

[2] = system: transformed AhR/ARNT complex; assay: size exclusion of biotin-DRE/AhR/ARNT/anti-ARNT complex followed by capture on neutravidin ELISA plates; conditions: FIG. 5, OD at 405 nm
Method: Size-exclusion of biotin-DRE/AhR/ARNT/anti-ARNT complex followed by capture on neutravidin ELISA plates and detection with anti-rabbit/alkaline phosphatase conjugate.
Diethanolamine buffer was prepared by dissolving 0.4 g Magnesium chloride hexahydrate, 0.8 g sodium azide, 338 mL diethanolamine in 2.5 L deionized water, adjusting pH to 9.8 with concentrated HCl, and adjusting volume to 4 liters.
PNPP stock was prepared fresh by dissoving two 15 mg tablets of para-nitro phenyl phosphate (Sigma, St. Louis, Mo.) in 20 mL diethanolamine buffer.
The same size exclusion column operating conditions were used as described above, except the DRE used was B-ERD oligo (SEQ. ID. #3) and DRE-D oligo (SEQ. ID #1)hybridized as described in methods. […]
Samples were incubated for 2 hours at room temperature as described above to achieve transformation/binding events then put on ice. […] The plate was incubated 2 hours, washed 3 times with 300 uL per well PBS plus 0.02% Tween 20, incubated 1 hour with 200 uL per well 1:1000 anti-rabbit/alkaline phosphatase conjugate in PBS plus 0.02% Tween 20 and 0.1% bovine serum albumin, washed 3 times with 300 uL per well PBS plus Tween 20 and developed 2 hours with 200 uL per well PnPP stock, and the optical density read at 405 nm in an ELISA spectrophotometer.

[3] = biological target: transformed Ah receptor/ARNT complex (Cavia porcellus, UniProt Q6J287); assay: Ah-ELISA, optimization of salt concentration; parameters: from tissue; host or cells: hepatic cytosol of male Hartley guinea pigs (animals from Cornell Research Animal Resources)
Method: The reagents and ELISA plate were prepared as described in Example 7, except the anti-Rabbit/alkaline phosphatase (Sigma, St. Louis, Mo.) was prepared to make a 1:4000 dilution. The final DRE dilution was 31.2 pmol per well. The final dilution of anti-ARNT was 0.275 ug per mL. The DRE was 1/32 of the highest dilution, which corresponds to a final dilution of 0.25 nmol/uL hybridized DRE x 10.6 uL DRE/1700 uL cytosol or 31.2 pmol per well. All other concentrations were the same. All assays were run at approximately 30° C.
The salt concentration during cytosol incubation was varied from 150 mM to 255 mM NaCl at 15 mM increments with a 0 mM NaCl control for with either DMSO or TCDD to determine the effect of salt concentration on background detection. Thus, the assay was run on samples with DMSO (-) or TCDD (+) added at the concentrations taught in Example 7.

Sequence of transformed Ah receptor/ARNT complex (Q6J287 1-846): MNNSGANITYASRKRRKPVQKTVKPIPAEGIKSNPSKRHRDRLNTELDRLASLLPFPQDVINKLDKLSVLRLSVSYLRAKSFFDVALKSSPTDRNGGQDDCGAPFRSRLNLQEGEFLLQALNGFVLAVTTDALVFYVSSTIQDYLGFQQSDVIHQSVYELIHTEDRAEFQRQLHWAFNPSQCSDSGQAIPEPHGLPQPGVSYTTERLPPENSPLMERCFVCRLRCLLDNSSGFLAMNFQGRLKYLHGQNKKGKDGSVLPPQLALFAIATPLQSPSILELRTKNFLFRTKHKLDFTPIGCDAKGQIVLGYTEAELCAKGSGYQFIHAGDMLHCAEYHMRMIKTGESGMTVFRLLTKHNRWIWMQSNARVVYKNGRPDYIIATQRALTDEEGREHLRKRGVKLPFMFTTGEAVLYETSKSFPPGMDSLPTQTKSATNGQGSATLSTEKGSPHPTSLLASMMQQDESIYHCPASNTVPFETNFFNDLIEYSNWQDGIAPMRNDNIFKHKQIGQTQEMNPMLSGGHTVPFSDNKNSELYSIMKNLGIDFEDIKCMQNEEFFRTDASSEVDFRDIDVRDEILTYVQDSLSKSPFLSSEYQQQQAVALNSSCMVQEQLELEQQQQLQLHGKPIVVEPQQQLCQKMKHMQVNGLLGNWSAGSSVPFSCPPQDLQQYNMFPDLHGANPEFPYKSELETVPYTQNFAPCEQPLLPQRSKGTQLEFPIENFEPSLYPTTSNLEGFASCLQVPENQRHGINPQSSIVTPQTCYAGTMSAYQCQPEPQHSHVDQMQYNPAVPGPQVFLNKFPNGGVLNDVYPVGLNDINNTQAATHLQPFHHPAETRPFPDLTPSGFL
Sequence of transformed Ah receptor/ARNT complex (Q0WXX3 1-790 partner): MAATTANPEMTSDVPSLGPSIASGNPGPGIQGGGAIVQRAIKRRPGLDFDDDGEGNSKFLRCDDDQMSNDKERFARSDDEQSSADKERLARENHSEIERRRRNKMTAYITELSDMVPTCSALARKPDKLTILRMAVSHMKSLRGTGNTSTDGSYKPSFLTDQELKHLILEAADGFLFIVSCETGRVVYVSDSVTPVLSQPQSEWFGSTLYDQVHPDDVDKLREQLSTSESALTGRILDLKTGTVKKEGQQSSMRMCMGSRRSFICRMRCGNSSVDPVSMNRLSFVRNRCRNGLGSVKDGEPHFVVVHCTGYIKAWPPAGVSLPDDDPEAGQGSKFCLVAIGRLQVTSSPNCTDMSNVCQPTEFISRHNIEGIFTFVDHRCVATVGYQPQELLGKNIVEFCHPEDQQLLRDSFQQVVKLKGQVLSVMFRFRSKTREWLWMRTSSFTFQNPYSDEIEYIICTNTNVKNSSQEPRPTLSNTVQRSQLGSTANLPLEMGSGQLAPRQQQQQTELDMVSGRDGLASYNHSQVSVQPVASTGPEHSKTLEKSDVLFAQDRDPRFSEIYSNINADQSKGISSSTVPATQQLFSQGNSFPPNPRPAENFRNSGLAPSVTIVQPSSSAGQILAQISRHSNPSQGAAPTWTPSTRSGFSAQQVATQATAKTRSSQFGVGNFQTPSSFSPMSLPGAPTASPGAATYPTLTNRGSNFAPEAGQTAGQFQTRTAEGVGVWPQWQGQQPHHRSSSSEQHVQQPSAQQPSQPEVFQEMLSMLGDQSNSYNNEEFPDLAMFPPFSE

Clc1cc2c(cc1Cl)Oc1cc(Cl)c(Cl)cc1O2 [TCDD, 2,3,7,8-tetrachlorodibenzo-p-dioxin]
ARNT band in size exclusion fraction 3 ([1]; sample B (TCDD) vs sample A (DMSO), anti-ARNT blot): showed a band at the size of ARNT (circa 97 kD) that was absent in fraction 3 of sample A | rabbit IgG light chain (anti-ARNT) band in size exclusion fraction 5 ([1]; sample D (TCDD) vs sample C (DMSO), anti-rabbit blot): showed a band at the size of rabbit IgG light chain (circa 25 kD) that was absent in fraction 5 of sample C | TCDD-dependent peak, fractions [2]: 18-28 fractions | DIFF ([3]; 0 mM NaCl): 1879 | RATIO ([3]; 0 mM NaCl): 6.298 | ELISA signal (+) ([3]; 0 mM NaCl, TCDD (+)): 2233 | DIFF ([3]; 150 mM NaCl): 2587 | RATIO ([3]; 150 mM NaCl): 18.03 | ELISA signal (+) ([3]; 150 mM NaCl, TCDD (+)): 2739 | DIFF ([3]; 165 mM NaCl): 2625 | RATIO ([3]; 165 mM NaCl): 21 | ELISA signal (+) ([3]; 165 mM NaCl, TCDD (+)): 2756 | DIFF ([3]; 180 mM NaCl): 2661 | RATIO ([3]; 180 mM NaCl): 25.96 | ELISA signal (+) ([3]; 180 mM NaCl, TCDD (+)): 2767 | DIFF ([3]; 195 mM NaCl): 2609 | RATIO ([3]; 195 mM NaCl): 26.35 | ELISA signal (+) ([3]; 195 mM NaCl, TCDD (+)): 2712 | DIFF ([3]; 210 mM NaCl): 2215 | RATIO ([3]; 210 mM NaCl): 26.29 | ELISA signal (+) ([3]; 210 mM NaCl, TCDD (+)): 2303 | DIFF ([3]; 225 mM NaCl): 1697 | RATIO ([3]; 225 mM NaCl): 21.89 | ELISA signal (+) ([3]; 225 mM NaCl, TCDD (+)): 1779 | DIFF ([3]; 240 mM NaCl): 1333 | RATIO ([3]; 240 mM NaCl): 16.76 | ELISA signal (+) ([3]; 240 mM NaCl, TCDD (+)): 1418 | DIFF ([3]; 255 mM NaCl): 1109 | RATIO ([3]; 255 mM NaCl): 12.07 | ELISA signal (+) ([3]; 255 mM NaCl, TCDD (+)): 1210 | DIFF ([3]; column S9): 86.67 | RATIO ([3]; column S9): 1.667 | ELISA signal (+) ([3]; column S9, TCDD (+)): 216.6 | salt concentration giving best ratio of background to detection of TCDD ([3]; during cytosol incubation): 180-195 mM NaCl
